Experimental data from patent US20250066727A1, “COMPOSITIONS AND METHODS FOR CULTURING STEM CELLS” (Beijing TheraXyte BioScience Co. Ltd., priority 2021, published 2025).

Tests used:
Type in all cases: cell-based
adult KSCs [1] = test: Growth supplement function assay (EdU / p63); settings: 24 hours; for concentration that could promote adult KSCs proliferation (EdU/p63 ratio): added to KSFX-free basal medium
Procedure: For the EdU (5-ethynyl-2′-deoxyuridine) assay, 5×10^3 cells were plated to a well of the 96-well cell culture plate and cultured for overnight. On the second day, the cells were treated with 10 μM EdU for 3 hours at 37° C. The cells were washed with PBS and then fixed with 4% formaldehyde for 30 min at RT. The cells were washed with PBS and then permeabilized with 0.1% Triton for 20 min at RT. The cells were washed with PBS and then labeled with freshly prepared EdU labeling buffer containing 5 μM of Sulfo-Cyanine 3 azide, 4 mM of Copper(II) sulfate pentahydrate, 2 mg/mL of Sodium L-ascorbate in PBS for 30 min at RT. The cells were washed with PBS and labeled with Hoechst if needed. Finally, the plate was scanned and analyzed by Celllnsight CX5 HCA reader.
Cells were washed with PBS once and then fixed with 4% formaldehyde for 30 min at room temperature (RT). The cells were washed with PBS and then permeabilized with 0.1% Triton for 20 min at RT The cells were washed with PBS and then blocked with 3% BSA for 1 hr at RT. Then the cells were incubated with primary antibodies such as anti-KRT14, or anti-p63 overnight at 4° C. The cells were washed with PBS and labeled with the secondary antibody such as Goat anti-Mouse Alexa Fluor 488, Goat anti-Rabbit Alexa Fluor 647, and Hoechst if needed. Finally, the plate was scanned and analyzed by CellInsight CX5 HCA reader. Microscopy was captured with Confocal Microscope A1 HD25.
Different concentrations of each factor were added to the KSFX-free basal medium and the adult KSCs were cultured for 24 hours. Then cells were labeled with EdU as well as the KSCs marker p63. The ratio of EdU/p63 indicates the proliferation rate of KSCs, and the p63 count indicates the total cell number which is a result of cell proliferation and cell death.

adult KSCs [2] = test: Calcium concentration function assay in KSFX-free basal medium
Procedure: (§1) For long-term proliferation assay, cells were continuously passaged on the 6-well cell culture plate. For each passage, 2×10^5 viable cells were plated and then cultured for about 5 days, when the cells were ˜90% confluent, cells were passaged and the cell number as well as the viability with the cell counter were recorded. Microscopy was performed with Eclipse TS100 (Nikon).
The effect of calcium concentrations in the KSFX-free basal medium on the proliferation and differentiation of adult KSCs were tested. Cells were cultured in different concentrations of calcium, including 0 mM, 0.05 mM, 0.15 mM, 0.5 mM, and 1.5 mM for 10 passages. As shown in FIG. 8 and FIG. 9A, withdraw of calcium led to the growth stop of adult KSCs after 3 passages.

adult KSCs [3] = test: Coating matrix function assay: attachment and spreading of adult KSCs in KSFX-free basal medium
Procedure: Coating Matrix Preparation—Coating matrix such as Collagen I, Poly-D-Lysine (PDL), Matrigel, rh-Fibronectin, and rh-Laminin 521 were prepared according to the instructions of the manufacture (Table 1). Briefly, for one well of the 6-well cell culture plate, 1 mL of the working solution was added to the surface of the well and the plate was incubated at the recommended condition. Then the well was washed once with 1 mL of PBS and ready to be used.
The keratinocyte stem cells (KSCs) were isolated from donated foreskin or fetal skin tissue. Briefly, the skin tissue was cleaned up with 70% ethanol and washed several times with PBS containing antibiotics. The tissue in PBS was collected, trimmed away any fat and loose fascia, and cut into strips approximately 0.5 cm×1.5 cm. The tissue was submerged in dispase and treated overnight at 4° C. The epidermis was then separated from the dermis and washed with PBS several times. All the epidermis was collected into one tube containing the TrypLE and incubated for 30 minutes at 37° C. Enough PBS was added to neutralize the TrypLE and the solution was pipetted up and down to suspend the cells. The cell suspension was passed through a 70 μm cell strainer, and then the cells were pelleted by centrifugation at 300 g for 10 minutes. The cell pellet was resuspended in culture medium and the concentration of the viable cells/mL was determined. 2×10^4 viable epidermal cells/cm^2 was plated on culture flask treated with coating matrix, and then the flask was incubated in a 37° C., 95% air/5% CO2 saturated humidity chamber. The culture medium was changed every 48 hours. Once the cultures were ˜80% confluent, the cells were subcultured and/or cryopreserved using a freezing medium. For subculture, cells were washed once by PBS then treated with TrypLE for no more than 6 min at 37° C. PBS was added to neutralize the TrypLE, and then the tube was centrifuged at 300 g for 10 min. New flasks were seeded at 1-2×10^4 cells/cm^2.
The function of each coating matrix listed in Table 1 was tested for the attachment and spreading of adult KSCs. […]

adult KSCs [4] = test: Long-term proliferation of adult KSCs on coating matrix in KSFX-free basal medium; settings: 5 passages
Procedure: as §1
Further, the proliferation functions of FN, COLI, and LN was also tested in the KSFX-free basal medium. Adult KSCs were continuously passaged and the population doubling (PD) curves were calculated.

[5] = 1.5 mM calcium, KSFX-free basal medium

## Cc1cccc(-c2nn(C(=S)Nc3ccccc3)cc2-c2ccnc3ccccc23)n1 [A 83-01]
Adult KSCs [1]
  concentration that could promote adult KSCs proliferation (EdU/p63 ratio): at least 0.5 μM

## C[C@@H](N)[C@H]1CC[C@H](C(=O)Nc2ccncc2)CC1 [Y-27632]
Adult KSCs [1]
  concentration that could promote adult KSCs proliferation (EdU/p63 ratio): at least 1 μM
Adult KSCs [1]; at least 1 μM (such as 1-10 μM), KSFX-free basal medium
  change of the total cell number (p63 count) compared with the blank: two-fold change

## [Ca+2] [calcium]
Adult KSCs [2]; 0 mM calcium (withdraw of calcium), KSFX-free basal medium
  passages after which adult KSCs stopped growing: 3 passages
Adult KSCs [2]; 0.05 mM calcium, later passages
  proliferation rate of adult KSCs: started to grow slower later
Adult KSCs [2]; 0.5 mM calcium, KSFX-free basal medium
  proliferation of adult KSCs: could proliferate longer, with more cell-to-cell connections
Adult KSCs [2]; [5]
  differentiation of adult KSCs: most of cells had differentiated with the collapsed nucleus
  passages after which adult KSCs stopped growing: 5 passages
Adult KSCs [2]; KSFX-free basal medium, 10 passages
  calcium concentration that can better support the long-term expansion of adult KSCs: 0.1 to 1.0 mM

## COLI: Collagen I coating matrix, extracted from rat tail, 50 μg/mL
Adult KSCs [3]; after 30 min of culturing, bright-field microscopy
  attachment and spreading of adult KSCs: attached to the plate and spread with a flatten morphology
Adult KSCs [3]; after 2 hours of culturing
  attachment and spreading of adult KSCs: fully spread
Adult KSCs [3]; overall
  attachment/spreading function, comparison among the coating matrix tested: performed better functions compared with MAT and PDL
Adult KSCs [4]
  long-term expansion of adult KSCs in vitro: supported the long-term expansion of adult KSCs in vitro
Adult KSCs [4]; continuously passaged
  proliferation of adult KSCs (population doubling) compared with blank: could promote the proliferation of adult KSCs
